Results: patent publication US12268661B2, “Methods of treating ascites” (Martin Pharmaceuticals, Inc., priority 2019, dated 2025)
Where two headings read alike, the source gives them in different places.

What was measured:
[1] = test system: cirrhotic patients with refractory ascites; assay: Open-label, single-arm clinical study of docarpamine in cirrhotic subjects with refractory ascites; type: in vivo, human
Protocol: An open-label, single-arm study in which each subject serves as his/her own control is conducted. The study assesses the effect of DCP treatment on ascites formation in cirrhotic subjects with RA, by examining the frequency of LVP and the volume of ascitic fluid drained. All subjects participate in a 90-day open-label treatment period. […] Ascites history (relevant medications, LVP dates, and volume of drained fluid) for the 90 days prior to treatment and the 90 days after treatment are collected and used for comparison with on-treatment frequency and volume. The study population consists of cirrhotic patients between 18 and 70 years of age, inclusive, with refractory ascites, subject to the following inclusion and exclusion criteria. • Patients 18 years to 70 years of age. • Documented cirrhosis of the liver. • Refractory ascites, defined as ascites not manageable with diuretics and diet restriction, managed with periodic large volume therapeutic paracentesis. • Patients must have therapeutic […] 3 days prior to enrollment and a documented minimum of 3 additional therapeutic […] 90 days prior to enrollment, with at least 1 every 30 days. • Outpatient, with expected survival of at least 6 months. • Willing and able to complete an informed consent form. […] Results

[2] = Dopamine levels after oral administration of docarpamine in non-Asian versus Asian populations; type: in vivo, human; details: non-Asian (especially Caucasian) compared to Asian (especially Japanese) populations
RA patients = details: small cohort of RA patients (Funasaki 1999); cited from earlier work
patients with RA = details: cited from earlier work
[3] = oral administration, high rates of metabolism in gut/small intestine and liver, cited from earlier work
[4] = test system: dopamine receptors, beta1 adrenoceptors, alpha-adrenoceptors; details: cited from earlier work
[5] = dopamine 2 ug/kg/min, patients with RA (Lin 1998)

Structure (SMILES): CCOC(=O)Oc1ccc(CCNC(=O)[C@H](CCSC)NC(C)=O)cc1OC(=O)OCC [docarpamine]
- dose groups in which effects are observed ([1]; 750 mg 3 times per day (2250 mg) versus 1500 mg 3 times per day (4500 mg), 90 days): only in the high dose (4500 mg per day group)
- time without requiring LVP ([1]; 1500 mg 3 times per day (4500 mg per day), 90 days treatment): Some patients do not require LVP for more than one month and others do not require LVP for more than two months
- renin and/or aldosterone levels ([1]; 4500 mg per day group, 90 days): reduced, in some cases to normal, in many patients
- sodium excretion and other markers of renal function ([1]; 4500 mg per day group, 90 days): Increased sodium excretion and other markers of improved renal function respond positively
- frequency of LVP and/or volume of ascites removed over 90 days ([1]; 4500 mg per day group, 90 days, versus own history): reduced by more than half on average
- urinary output ([1]; 4500 mg per day group, most patients, from 500-1000 ml before, 'or more'): 1500 to 2000 mL
- response (need for LVP) ([1]; some patients, 2250 mg per day in combination with diuretics (furosemide and/or spironolactone)): enhanced response (decreased need for LVP)
- variability in the resulting dopamine levels [2]: high degree of variability
- efficacy in refractory ascites (RA patients): effective

Structure (SMILES): NCCc1ccc(O)c(O)c1 [dopamine]
- GFR (patients with RA; dopamine 1.5 ug/kg/min (Bacq 1991)): did not enhance
- urine volume and GFR (patients with RA; dopamine 2 ug/kg/min (Espiritu 1972)): non-significant increases
- changes of blood urea nitrogen, creatinine, creatinine clearance, blood pressure, pulse rate, serum sodium, serum aldosterone and GFR (patients with RA; [5]): no difference
- effective renal plasma flow (patients with RA; [5]): Positive effects
- GFR (patients with RA; dopamine 200 ug/min): did not significantly change
- urine volume, urine sodium or GFR (patients with RA; dopamine 1.3-3 ug/kg/min (Barnardo 1970)): did not change
- oral bioavailability [3]: not orally bioavailable
- oral bioavailability ([3]; listed as Dopamine): not bioavailable when administered orally
- effect at low rates of infusion ([4]; 0.5-2 mcg/kg/min, renal, mesenteric, coronary, intracerebral vascular beds): vasodilation
- effect at intermediate rates of infusion ([4]; 2-10 mcg/kg/min, beta1 adrenoceptor stimulation): improved myocardial contractility, increased sino-atrial rate and enhanced impulse conduction in the heart
- effect at higher rates of infusion ([4]; 10-20 mcg/kg/min, alpha-adrenoceptors): vasoconstrictor effects and a rise in blood pressure
- effect at very high rates of infusion ([4]; above 20 mcg/kg/min, alpha-adrenoceptor stimulation predominates): reversing renal dilation and natriuresis
- effect when administered intravenously ([4]; intravenous): natriuretic and positive inotropic effects

Structure (SMILES): Oc1ccc(C2CNCCc3c2cc(O)c(O)c3Cl)cc1 (centres unmarked) [fenoldopam]
- urine volume or urine sodium (patients with RA; Hadengue 1991): failed to increase
